Experiments:
[1] = target: T1, FLAG-SIRT1 binding to lamin A (Homo sapiens, UniProt Q96EB6); test: Co-immunoprecipitation of FLAG-SIRT1 and lamin A in HEK293 cells; type: cell-based; conditions: dose-dependent per FIG. 3D legend
T1 construct: expressed in transfected cells; host or cells: HEK293
T1 sequence (Q96EB6 1-747): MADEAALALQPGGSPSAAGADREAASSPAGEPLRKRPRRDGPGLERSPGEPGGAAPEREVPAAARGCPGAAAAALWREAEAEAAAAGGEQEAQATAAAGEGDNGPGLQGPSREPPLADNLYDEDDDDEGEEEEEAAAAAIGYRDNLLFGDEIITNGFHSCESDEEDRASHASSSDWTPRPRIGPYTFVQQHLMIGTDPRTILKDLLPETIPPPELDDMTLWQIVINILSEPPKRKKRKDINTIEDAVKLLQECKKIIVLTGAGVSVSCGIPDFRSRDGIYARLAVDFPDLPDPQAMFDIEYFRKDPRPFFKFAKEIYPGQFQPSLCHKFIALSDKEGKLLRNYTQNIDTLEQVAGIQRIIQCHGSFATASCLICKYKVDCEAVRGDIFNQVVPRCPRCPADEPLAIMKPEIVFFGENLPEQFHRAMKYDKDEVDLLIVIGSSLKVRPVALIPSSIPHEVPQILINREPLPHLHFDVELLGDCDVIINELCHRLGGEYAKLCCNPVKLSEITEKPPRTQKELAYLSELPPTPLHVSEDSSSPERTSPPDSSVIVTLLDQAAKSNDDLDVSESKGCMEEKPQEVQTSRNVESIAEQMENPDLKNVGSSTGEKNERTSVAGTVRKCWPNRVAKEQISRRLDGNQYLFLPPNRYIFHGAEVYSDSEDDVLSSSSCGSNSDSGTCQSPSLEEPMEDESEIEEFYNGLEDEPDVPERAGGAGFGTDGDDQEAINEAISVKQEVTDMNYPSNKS
T1 sequence (P02545 1-646 partner limits assumed): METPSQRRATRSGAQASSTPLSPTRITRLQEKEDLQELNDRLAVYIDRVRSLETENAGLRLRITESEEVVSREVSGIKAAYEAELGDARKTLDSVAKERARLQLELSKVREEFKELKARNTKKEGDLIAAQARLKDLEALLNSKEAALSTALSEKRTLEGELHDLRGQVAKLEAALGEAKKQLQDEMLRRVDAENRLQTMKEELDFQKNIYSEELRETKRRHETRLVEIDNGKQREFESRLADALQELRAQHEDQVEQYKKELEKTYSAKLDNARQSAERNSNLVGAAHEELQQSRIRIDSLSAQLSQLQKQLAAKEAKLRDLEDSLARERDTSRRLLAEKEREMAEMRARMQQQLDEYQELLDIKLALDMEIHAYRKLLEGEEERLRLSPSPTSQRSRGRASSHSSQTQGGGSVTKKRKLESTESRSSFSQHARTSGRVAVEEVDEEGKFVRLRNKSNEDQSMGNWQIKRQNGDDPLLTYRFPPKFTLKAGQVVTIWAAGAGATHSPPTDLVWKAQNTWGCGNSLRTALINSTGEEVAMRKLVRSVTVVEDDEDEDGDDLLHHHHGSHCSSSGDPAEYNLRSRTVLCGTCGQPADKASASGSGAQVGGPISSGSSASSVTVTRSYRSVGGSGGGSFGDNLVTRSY
Method: For co-immunoprecipitation, cells were lysed into pre-chilled RIPA buffer containing 300 mM or 500 mM NaCl and protease inhibitors. Primary antibodies or appropriate control IgGs were added to the lysate and incubated for 2 h on a rocking platform at 4° C. before Agarose beads were added and incubated O/N. The beads were washed twice with RIPA buffer, resuspended into Laemmli buffer and boiled, and protein suspension was collected by centrifugation and stored for further analysis.

[2] = target: T2, rhSIRT1 association with NM (Homo sapiens, UniProt Q96EB6); test: Association of rhSIRT1 with insoluble NM fraction in test tube; type: binding; conditions: NM from wild-type and Zmpste24−/− cells, resveratrol 10 μM
T2 sequence (Q96EB6 1-747): T1 sequence (Q96EB6 1-747)

Zmpste24−/− mice = test: Survival and body weight of Zmpste24−/− mice treated via drinking water; type: in vivo, mouse; conditions: resveratrol 20 μg/ml in drinking water
Method: Zmpste24^−/− mice have been described previously (Pendas et al., 2002). Mouse experimentation was performed in accordance with the guidelines of the Committee on the Use of Live Animals in Teaching and Research (CULATR) at the University of Hong Kong. New-born Zmpste24^−/− mice and wild-type controls were fed with resveratrol (20 μg/ml) or N-acetyl Cysteine (1 mg/ml) in drinking water. The survival of resveratrol-treated, NAC-treated, or vehicle-treated Zmpste24^−/− mice was recorded and their body weight was monitored weekly. The trabecular bone organization and bone mineral density were determined by micro-CT. The survival rate was analyzed by Kaplan-Meier method and statistical comparison was performed by Log-rank (Mantel-Cox) Test.
Briefly, resveratrol was supplemented at a concentration of 20 μg/ml in drinking water. Four months after treatment, BMSCs were collected for examination and comparison between resveratrol-treated and vehicle-treated Zmpste24^−/− mice.

SIRT1 [3] = target: T3, SIRT1 (Homo sapiens, UniProt Q96EB6); conditions: cited from earlier work
T3 sequence (Q96EB6 1-747): T1 sequence (Q96EB6 1-747)

SIRT1 [4] = target: T3, SIRT1; test: SIRT1 deacetylation assay on native full-length acetyl FLAG-p53 (Western blotting, anti-acetyl lysine); type: biochemical; design: purchased Biomol (Hamburg, Germany)
Method: SIRT1 deacetylation assay on fluorophore-conjugated synthetic p53 peptide was performed with SIRT1 Fluorimetric Drug Discovery Kit (Biomol, Hamburg, Germany) according to the manufactory's instruction. Cells were fractionated as described above except that protease inhibitors were NOT included and the nuclear matrix fraction was suspended into the assay buffer provided by the supplier. Different cell fractions or recombinant human lamin A (rhLamin A, Diatheva, Italy) were added in the reaction mix of SIRT1 Fluorimetric Drug Discovery Kit, incubated for 20 min at 37° C., and then the reaction was stopped and fluorescent signal was detected. SIRT1 deacetylase activity on native target was assayed using SIRT1 assay Kit from Sigma (USA). Constructs encoding FLAG-p53 and HA-p300 were co-transfected into HEK293 cells; FLAG-p53 was immunoprecipitated by anti-FLAG M2 Agarose (Sigma) followed by elution with FLAG peptide (Sigma). Purified acetyl FLAG-p53 was incubated with recombinant human SIRT1 (rhSIRT1) and NAD+ for 30 min at 37° C., in the presence or absence of rhLamin A or resveratrol. The acetylation level of FLAG-p53 was determined by Western blotting with pan anti acetyl lysine antibodies.
To further test the effect of rhLamin A on the native target of SIRT1, acetyl p53 was purified by anti-FLAG immunoprecipitation in HEK293 cells ectopically expressing FLAG-p53 and p300, and SIRT1 deacetylation assay was performed as described in Materials and Methods.

Oc1ccc(C=Cc2cc(O)cc(O)c2)cc1 [resveratrol]
binding of FLAG-SIRT1 to lamin A [1]: enhanced the binding | association of rhSIRT1 with NM [2]: enhanced the association | animals still alive (Zmpste24−/− mice; by 26 weeks after birth): ~60% | body weight loss (Zmpste24−/− mice; compared to vehicle-treated controls): significantly slowed down | median survival (Zmpste24−/− mice; vehicle 20 weeks): 27 weeks | maximum lifespan (mean lifespan of the longest-lived 10% of the animals) (Zmpste24−/− mice; vehicle 27.5 weeks): 33.5 weeks | SIRT1 activation towards full-length native target proteins, including p53 and PGC-1α (SIRT1 [3]; Beher 2009, Dai 2010, Pacholec 2010): do not confer any SIRT1 activation | SIRT1 activity towards fluorophore-conjugated synthetic peptide (Ac-Arg-His-Lys-LysAc-AMC) rather than the unmodified one (SIRT1 [3]; Borra et al., 2005, Kaeberlein et al.): specifically enhances | activation of SIRT1 deacetylase activity, native full-length FLAG-p53 as substrate (SIRT1 [4]; in the presence of rhLamin A): activated SIRT1 in a lamin A dose-dependent manner | activation of SIRT1 deacetylase activity, native full-length FLAG-p53 as substrate (SIRT1 [4]; without rhLamin A): does not directly activate

Source: US10086039B2, “Lamin A, an activator of longevity/anti-aging SIRT1 protein” (THE UNIVERSITY OF HONG KONG, priority 2012, dated 2018)
